Experimental data reported in PMC12040169 (PLOS Biology, 2025).

Assay: in vitro
Details: human, hela cells, % viability

| SMILES | viability at 28.5 h, 10 µM [%] |
| --- | --- |
| Cc1ccc(CNC(=O)NCCc2cccs2)cc1 [CBK044960] | 88.5 |
| Nc1nc(Cl)cc(Sc2ccc3ccccc3c2)n1 [CBK021630] | 97.4 |
| Cc1nc2cc(C(=O)N3CCC(c4ccncc4)CC3)ccc2s1 [CBK283513] | 85.7 |
| COc1cc2c(cc1OC)CN(Cc1ccccc1[N+](=O)[O-])CC2 [CBK261535] | 89.8 |
| CC(=O)N1CCCCC[C@@H]2[C@@H]1C[C@@H](Cc1ccccc1)N2C(=O)c1ccccc1 [CBK285576] | 115 |
| CN(C(=O)Cn1c(=O)n(C)c2ncccc21)C1CCCCC1 [CBK283791] | 81.5 |
| O=C(O)c1cc(-c2cccnc2)nc2ccccc12 [CBK262141K] | 103 |
| O=C(c1ccccc1F)N1CCC(c2nnc3n2CCCCC3)CC1 [CBK284628] | 82.2 |
| CCOc1ccsc1C(=O)Nc1cc(C)ccn1 [CBK004029] | 88.3 |
| CC(=O)c1ccc(C(=O)Nc2ccc3nc(C)sc3c2)cc1 [CBK287310] | 95.5 |
| Fc1ccc2[nH]c3c(c2c1)CCN1C(c2ccncc2)N2CCC31CC2 (stereo not shown) [CBK284437] | 78.6 |
| O=C(CSc1cnn[nH]1)Nc1ccccc1F [CBK269903] | 101 |
| CC(C)c1c(O)c2ccccc2[nH]c1=O [CBK159988] | 89.4 |
| Cc1nc(C)c(C(=O)N2CCCC(C(=O)c3ccc(F)cc3)C2)s1 (stereo not shown) [CBK305296] | 104 |
| O=C1CSC(c2cccc(Cl)c2Cl)N1C1CCCCC1 (stereo not shown) [CBK020678] | 96.7 |
| COc1nc(NCCN2CCOCC2)nc(Nc2ccccc2)n1 [CBK027298] | 102 |
| O=C(CCCN1CCN(CCCC(=O)c2ccc(F)cc2)CC1)c1ccc(F)cc1 [CBK025317C] | 89.1 |
| Cc1ccc2[nH]c(Cc3ccc(NC(=O)CCC4C(=O)Nc5ccccc54)cc3)nc2c1 (stereo not shown) [CBK285824] | 91 |
| CCCCC1CCC(C(=O)Nc2cc(C)c3c(=O)oc4ccccc4c3n2)CC1 (stereo not shown) [CBK291136] | 101 |
| Cc1ccc(C)c(C(C)NC(=O)C2CCCN(S(C)(=O)=O)C2)c1 (stereo not shown) [CBK304672] | 96.6 |
| COc1ccccc1-c1nccnc1NCc1ccccn1 [CBK036894] | 108 |
| Cn1c(C(=O)O)ccc1S(=O)(=O)NCc1ccco1 [CBK113686] | 105 |

| SMILES | viability at 28.5 h, 10 µM [%] |
| --- | --- |
| O=C(CCc1ccc(O)c(O)c1)NNC(=S)Nc1ccc(F)cc1F [CBK267041] | 114 |
| OB(O)c1ccc(Oc2ccc(B(O)O)cc2)cc1 [CBK261159] | 102 |
| CCOC(=O)c1c(CN(C)C)n(-c2ccccc2)c2cc(Br)c(O)cc12 [CBK261309C] | 83.4 |
| Cc1cc(C)c2c(=O)[nH]c(SCC(=O)c3ccc(F)c(C)c3)nc2n1 [CBK266087] | 102 |
| Oc1cc(Cl)c(-c2ccccc2)nn1 [CBK022028] | 88.4 |
| COc1ccc(C(C)NC(=O)c2cn[nH]c2-c2ccc(Cl)cc2)cc1 (stereo not shown) [CBK288065] | 102 |
| O=C(N[C@H]1C[C@H]2C(=O)NC[C@@H](CCC(=O)N3CCCCC3)N2C1)c1cccs1 [CBK289010] | 87.9 |
| O=C(N/N=C/c1ccccn1)c1cc(-c2ccc3ccccc3c2)[nH]n1 [CBK262886] | 93.9 |
| CSCCNC(=O)c1coc(COc2ccc3sc(C)nc3c2)n1 [CBK307004] | 99.3 |
| CCCC12CN3CC(C)(CN(C1)C31C(=O)Nc3ccc(C)cc31)C2=O (stereo not shown) [CBK268491] | 113 |
| COc1cc(C)c(C)cc1S(=O)(=O)N1[C@@H](c2ccccc2F)C[C@@H]2NC(=O)CCC[C@H]21 [CBK286012] | 112 |
| Cc1cc2cc(NC(=O)CCc3c(C)n[nH]c3C)ccc2o1 [CBK283077] | 84.2 |
| COc1ccc(-c2cccc(N3CCN(CCN4CCCC4)CC3)n2)cc1OC [CBK037680] | 84.9 |
| Cn1nc([N+](=O)[O-])nc1Sc1nnnn1-c1ccc(C(=O)O)cc1 [CBK266961] | 109 |
| CSc1ccccc1NC(=O)c1cc(Cl)sc1Cl [CBK057008] | 99.2 |
| Cc1noc(C)c1CC(=O)NC(CN1CCCCC1)c1ccccc1 (stereo not shown) [CBK281507] | 89.1 |
| O=[N+]([O-])c1ccc(Oc2ccccc2F)cc1 [CBK002532] | 93.9 |
| Cc1ccc(S(=O)(=O)Nc2ccc(C3(c4ccc(NS(=O)(=O)c5ccc(C)cc5)cc4)c4ccccc4-c4ccccc43)cc2)cc1 [CBK261154] | 102 |
| O=C(Cc1csc(-c2ccc(Cl)cc2)n1)NCCN1CCCC1 [CBK107306] | 90 |
| COc1cccc(CCN2C(=O)CC3(C2=O)C(=O)N(C)c2ccc(OC)cc23)c1 (stereo not shown) [CBK075191] | 94.6 |
| O=C(O)CCn1c(SCCc2ccccc2)nc2ccccc21 [CBK262384] | 107 |
| CN(C)C(=O)c1ccc(-c2ccc(COC3CCN(C(=O)Cc4ccc(F)cc4)CC3)c(S(C)(=O)=O)c2)cc1 [CBK155963] | 96.1 |

| SMILES | viability at 28.5 h, 10 µM [%] |
| --- | --- |
| CCNc1nc(-c2ccc(S(C)(=O)=O)cc2)cn2ccnc12 [CBK066452] | 87.1 |
| O=C(O)CSc1ccc(Cl)cc1 [CBK115571] | 88.4 |
| CC(=O)Nc1ccc(-c2cncc(Nc3ccc(F)c(Cl)c3)n2)cc1 [CBK065765] | 96.1 |
| CC(C)n1cc(C(=O)N2CCCC2c2nc3ccccc3[nH]2)cn1 (stereo not shown) [CBK284667] | 108 |
| COc1ccc(OC)c(-n2c(SCC(=O)N3CCC(C(=O)O)CC3)nc3ccccc3c2=O)c1 [CBK296981] | 87.5 |
| Cc1nc([N+](=O)[O-])c(NCCO)n1Cc1ccccc1 [CBK261422] | 88.5 |
| O=C(Nc1ccc(N2CCN(Cc3ccccc3F)CC2)cc1)c1cccnc1 [CBK267250] | 106 |
| Cc1cc(C)n2nc(C(=O)N3CCC(C)CC3c3ccco3)nc2n1 (stereo not shown) [CBK305196] | 84.8 |
| Cc1sc2ncn(Cc3c(Cl)cccc3Cl)c(=O)c2c1C [CBK265355] | 78.8 |
| N=c1n(Cc2ccccc2)c2ccccc2n1CC(O)COc1ccc(Cl)cc1 (stereo not shown) [CBK262469C] | 94.4 |
| CC1=C(C)CC(C(=O)Nc2ccc3c(c2)oc2ccccc23)C(C(=O)O)C1 (stereo not shown) [CBK263533] | 102 |
| CCOC(=O)C1(C2CCCCC2)CCN(C(=O)C2COc3ccccc3O2)CC1 (stereo not shown) [CBK136925] | 101 |
| CC(C)CCn1c(=O)c(C(=O)Nc2ccccc2S(N)(=O)=O)c(O)c2ccccc21 [CBK262294] | 104 |
| CCc1c(C)sc(NC(=O)c2ccc(Br)o2)c1C#N [CBK021662] | 83.6 |
| CN(Cc1cnn(C)c1)c1nccc(N2CCN[C@H]3CS(=O)(=O)C[C@H]32)n1 [CBK306964] | 100 |
| CC(=O)c1ccc(S(=O)(=O)N2CCCCC2C)cc1 (stereo not shown) [CBK069211] | 90 |
| NC(=O)CN1CCCC2(CCCCc3ccccc3OCC(=O)NC2)C1 (stereo not shown) [CBK292058] | 106 |
| Cc1nn(C(C)CC(=O)O)c(C)c1Br (stereo not shown) [CBK269138] | 91.7 |
| COc1cc(NC(=O)Nc2ccc3ccc(Cl)nc3n2)cc(OC)c1OC [CBK115933] | 82.9 |
| CC(=O)c1cccc(NC(=O)Nc2cccc(S(=O)(=O)N3CCOCC3)c2)c1 [CBK266996] | 89.9 |
| Clc1ccc(CN2CCCN(c3nccc(OCC4COc5ccccc5O4)n3)CC2)cc1 (stereo not shown) [CBK084038] | 84.9 |
| [O-][S+](CC(O)COc1ccc(Cl)cc1)c1ccccn1 (stereo not shown) [CBK261750] | 99.9 |

| SMILES | viability at 28.5 h, 10 µM [%] |
| --- | --- |
| O=C(COc1ccc(S(=O)(=O)N2CCCCC2)cc1)NCc1ccncc1 [CBK269053] | 92.5 |
| Cc1nnc(CN(C)C2CCN(CCc3cccs3)C2)n1C (stereo not shown) [CBK305126] | 97.8 |
| COc1ccc(N2CCN(c3cc(-c4ccccc4OCc4ccccc4)ncn3)CC2)cc1OC [CBK091024] | 97.5 |
| CC(=O)C12c3ccccc3C(c3ccccc31)C1C(=O)N(c3ccc(Cl)c(C(=O)O)c3)C(=O)C12 (stereo not shown) [CBK263021] | 93.8 |
| O=C(c1ccc2[nH]c(=O)[nH]c2c1)N1CCCC2(CCN(C(=O)c3cc(F)c(F)cc3F)C2)C1 (stereo not shown) [CBK131566] | 106 |
| CCN1CC2(CCN(CCOc3ccccc3)CC2)c2ccccc21 [CBK122705] | 100 |
| O=C(N1CCc2ccc(S(=O)(=O)Nc3ccc(-c4nnn[nH]4)cc3)cc2C1)C(F)(F)F [CBK155437] | 99.9 |
| COc1ccc(C)cc1NC(=O)c1cnc2sc(C)cn2c1=O [CBK287714] | 105 |
| CC(=O)N[C@H]1C[C@@H](Cc2cc(CN3CCN(c4ccccc4)CC3)on2)C1(C)C [CBK289241] | 109 |
| COc1ccc(CCNC(=O)N2CCN(c3cc(C(F)(F)F)ccn3)CC2)cc1OC [CBK162330] | 105 |
| O=C(c1cccs1)N(Cc1ccco1)c1ccc(O)cc1 [CBK269256] | 88.9 |
| Oc1cccc(C(O)CNCc2ccc(OCc3ccc(Cl)cc3Cl)cc2)c1 (stereo not shown) [CBK267621C] | 93 |
| COc1ccc(-c2nc3ccccn3c2CN2CCC(C(=O)O)CC2)cc1 [CBK287052] | 88.4 |
| Cc1ncsc1C(=O)N1CCCC(c2cc3cnccc3[nH]2)C1 (stereo not shown) [CBK283461] | 94 |
| Cc1ccc2c(CC(=O)NCCn3cncn3)coc2c1 [CBK283240] | 93.8 |
| O=S(=O)(Nc1nncs1)c1ccccc1 [CBK045489] | 86.7 |
| Cc1ccc(N2CCCn3c2nc2c3c(=O)n(CC(=O)O)c(=O)n2C)cc1 [CBK286740] | 90.5 |
| O=S(=O)(Nc1cc(OC2CCNCC2)c2occc2c1)c1c(Cl)cccc1Cl [CBK074989C] | 64.3 |
| O=C(O)CCCC(=O)Nc1ccccc1-c1nc2ccccc2[nH]c1=O [CBK280451] | 85.9 |
| CNC(=O)Nc1cccc(S(N)(=O)=O)c1 [CBK023839] | 89.1 |

Same assay, conditions: human, hela cells, % viability, bulk resorufin, single well

| SMILES | viability at 28.5 h, 10 µM [%] |
| --- | --- |
| O=C(NCCc1cccs1)N1CCC2(CC1)OCc1cc(F)ccc1O2 [CBK060769] | 98.3 |
| CCNC(=O)N1CCC2(CC1)OCc1cc(-c3ccc(Cl)cc3)ccc1O2 [CBK060737] | 90.1 |
